Earlier results as cited in PubChem BioAssay AID1259409 (Chemical Carcinogenesis Research Information System (CCRIS), 2018).

Test system: rodent chemically induced tumor inhibition, incidence and multiplicity
Assay: CCRIS tumor inhibitor studies

Q: What does the source list for Cc1ncc(C[n+]2csc(CCO)c2C)c(N)n1?
A: tumour outcome (control, treated, inhibition, significance) (Carcinogen: 7,12-DIMETHYLBENZ[A]ANTHRACENE, 57-97-6, Dose [Inhibitor]: 0.2% IN DRINKING WATER DAILY STARTING 4 WK BEFORE CARCINOGEN TREATMENT AND CONTINUING FOR DURATION OF STUDY (STUDY DURAT, Route [Inhibitor]: ORAL, Species: MOUSE, Strain/Sex: 101/MALE, FEMALE, Target Tissue: Type of Lesion: SKIN: PAPILLOMA, Dose [Carcinogen]: 225 UG IN 0.15 ML ACETONE ONCE, Promoter: CROTON OIL, 8001-28-3): 17/19 (89%), 18/20 (90%), -1%, not calculated; tumour outcome (control, treated, inhibition, significance) (Carcinogen: BENZO[A]PYRENE, 50-32-8, Dose [Inhibitor]: 2.5 MG 2/WK FOR 20 WK STARTING 4 WK BEFORE START OF CARCINOGEN TREATMENT PLUS 0.2% IN DRINKING WATER (STUDY DURATION: 22, Route [Inhibitor]: SUBCUTANEOUS, ORAL, Species: MOUSE, Strain/Sex: 101/MALE, FEMALE, Target Tissue: Type of Lesion: SKIN: PAPILLOMA, Dose [Carcinogen]: 0.2 ML OF 0.25% 2/WK FOR 20 WK, Promoter: NONE USED): 13/18 (72%), 5/8 (63%), 13%, not calculated; tumour outcome (control, treated, inhibition, significance) (Carcinogen: BENZO[A]PYRENE, 50-32-8, Dose [Inhibitor]: 2.5 MG 2/WK FOR 20 WK STARTING 4 WK BEFORE START OF CARCINOGEN TREATMENT PLUS 0.2% IN DRINKING WATER (STUDY DURATION: 37, Route [Inhibitor]: SUBCUTANEOUS, ORAL, Species: MOUSE, Strain/Sex: 101/MALE, FEMALE, Target Tissue: Type of Lesion: SKIN: MALIGNANT TUMOR, Dose [Carcinogen]: 0.2 ML OF 0.25% 2/WK FOR 20 WK, Promoter: NONE USED): 12/18 (67%), 5/8 (63%), 6%, not calculated; tumour outcome (control, treated, inhibition, significance) (Carcinogen: ETHYLNITROSOUREA, 759-73-9, Dose [Inhibitor]: 0, 500 MG/KG MIXED WITH STARCH 1:20 (WEIGHT: WEIGHT) IN DIET 5 D/WK FOR 10 MO (STUDY DURATION: 10 MO), Route [Inhibitor]: ORAL, Species: RAT, Strain/Sex: ALBINO/MALE,FEMALE, Target Tissue: Type of Lesion: BRAIN: GLIOMA OR ASTROCYTOMA, Dose [Carcinogen]: 75 MG/KG IN SALINE BY INTRAVENOUS INJECTION ONCE 21 D AFTER CONCEPTION): 21/40 (52%), 14/20 (70%), -35%, not calculated; tumour outcome (control, treated, inhibition, significance) (Carcinogen: ETHYLNITROSOUREA, 759-73-9, Dose [Inhibitor]: 0, 500 MG/KG MIXED WITH STARCH 1:20 (WEIGHT: WEIGHT) IN DIET 5 D/WK FOR 10 MO (STUDY DURATION: 10 MO), Route [Inhibitor]: ORAL, Species: RAT, Strain/Sex: ALBINO/MALE,FEMALE, Target Tissue: Type of Lesion: KIDNEY: MESENCHYMAL TUMOR OR ADENOCARCINOMA, Dose [Carcinogen]: 75 MG/KG IN SALINE BY INTRAVENOUS INJECTION ONCE 21 D AFTER CONCEPTION): 11/40 (28%), 10/20 (50%), -79%, not calculated; tumour outcome (control, treated, inhibition, significance) (Carcinogen: ETHYLNITROSOUREA, 759-73-9, Dose [Inhibitor]: 0, 500 MG/KG MIXED WITH STARCH 1:20 (WEIGHT: WEIGHT) IN DIET 5 D/WK FOR 10 MO (STUDY DURATION: 10 MO), Route [Inhibitor]: ORAL, Species: RAT, Strain/Sex: ALBINO/MALE,FEMALE, Target Tissue: Type of Lesion: NERVOUS SYSTEM: SCHWANNOMA, Dose [Carcinogen]: 75 MG/KG IN SALINE BY INTRAVENOUS INJECTION ONCE 21 D AFTER CONCEPTION): 19/40 (48%), 5/20 (25%), 48%, not calculated; tumour outcome (control, treated, inhibition, significance) (Carcinogen: ETHYLNITROSOUREA, 759-73-9, Dose [Inhibitor]: 0, 500 MG/KG MIXED WITH STARCH 1:20 (WEIGHT: WEIGHT) IN DIET 5 D/WK FOR 10 MO (STUDY DURATION: 10 MO), Route [Inhibitor]: ORAL, Species: RAT, Strain/Sex: ALBINO/MALE,FEMALE, Target Tissue: Type of Lesion: SPINAL CORD: TUMOR, Dose [Carcinogen]: 75 MG/KG IN SALINE BY INTRAVENOUS INJECTION ONCE 21 D AFTER CONCEPTION): 17/40 (42%), 4/20 (20%), 52%, not calculated
